Measurements reported in patent publication US20190000905A1, “Gynostemma pentaphyllum fermented extracts comprising Saponins as an active functional food ingredient and preparation method thereof” (BTC Co., Ltd., priority 2017, published 2019).

Legend:
Format in all cases: cell-based
[1] = system: FAS (fatty acid synthase); experiment: Effect of saponins of the extract on FAS expression in 3T3-L1 cells; details: FIG. 1 and FIG. 2
Source text: (§1) The effect of the saponins of the extract according to the present disclosure on the activity of AMPK, ACC and FAS in 3T3-L1 cells is shown in FIG. 1 and FIG. 2. AMPK is an enzyme involved in fatty acid oxidation, inhibition of adipocyte differentiation, etc. It is involved in inhibition of fatty acid biosynthesis and fatty acid degradation by phosphorylating (inactivating) ACC through AMPK phosphorylation (p-AMPK). FAS (fatty acid synthase) plays a role of promoting fatty acid synthesis.

ACC = experiment: Effect of saponins of the extract on activity of ACC in 3T3-L1 cells (p-ACC); details: FIG. 1 and FIG. 2
Source text: as §1

AMPK = experiment: Effect of saponins of the extract on activity of AMPK in 3T3-L1 cells (p-AMPK); details: FIG. 1 and FIG. 2
Source text: as §1

fat accumulation = experiment: Effect of saponins of the fermented extract on fat accumulation (FIG. 3); details: as compared to a control group
Source text: The effect of the saponins of the extract of fermented Gynostemma pentaphyllum according to the present disclosure on fat accumulation was investigated.

Row | SMILES | expression of FAS (fatty acid synthase) [1] | activation of p-ACC (ACC) | activation of p-AMPK (AMPK) | inhibition of fat accumulation (fat accumulation)
1 | CC(C)=CCC[C@](C)(O)[C@H]1CC[C@]2(C)[C@@H]1[C@H](O)C[C@@H]1[C@@]3(C)CC[C@H](O[C@@H]4O[C@H](CO)[C@@H](O)[C@H](O)[C@H]4O[C@@H]4O[C@H](CO)[C@@H](O)[C@H](O)[C@H]4O)C(C)(C)[C@@H]3CC[C@]12C [ginsenoside Rg3] | inhibiting the expression of FAS | activated p-AMPK and p-ACC in a concentration-dependent manner | activated p-AMPK and p-ACC in a concentration-dependent manner | exhibited an effect of inhibiting fat accumulation
2 | CC(C)=CCC[C@@](C)(O)[C@H]1CC[C@]2(C)[C@@H]1[C@H](O)C[C@@H]1[C@@]3(C)C[C@@H](O)[C@H](O[C@@H]4O[C@H](CO)[C@@H](O)[C@H](O)[C@H]4O[C@@H]4O[C@H](CO)[C@@H](O)[C@H](O)[C@H]4O)C(C)(C)[C@@H]3CC[C@]12C [gypenoside LI] | inhibiting the expression of FAS | activated p-AMPK and p-ACC in a concentration-dependent manner | activated p-AMPK and p-ACC in a concentration-dependent manner | exhibited an effect of inhibiting fat accumulation
3 | CC(C)=CCC[C@](C)(O)[C@H]1CC[C@]2(C)[C@@H]1[C@H](O)C[C@@H]1[C@@]3(C)C[C@@H](O)[C@H](O[C@@H]4O[C@H](CO)[C@@H](O)[C@H](O)[C@H]4O[C@@H]4O[C@H](CO)[C@@H](O)[C@H](O)[C@H]4O)C(C)(C)[C@@H]3CC[C@]12C [gypenoside L] | – | – | – | exhibited an effect of inhibiting fat accumulation
